From patent US12414960B2, “Analogues of oleuropein and oleacein and uses thereof” (Attica Sciences Ltd., priority 2020, dated 2025)
“Also recorded” adds a separate entry of the source.

What was measured:
TNF-α = experiment: ELISA of TNF-α in PMA/LPS-treated THP-1 cells; type: cell-based, human; details: THP-1, PMA then LPS 100 ng/ml 24 hours, 5 uM compound added 2 hours before LPS
Protocol: Human monocytes (THP-1, ATCC) were cultured in RPMI 1640 media supplemented with HEPES buffer (10 mM), sodium pyruvate (1 mM), glucose (4.5 g/L), fetal bovine serum (10%), penicillin (100 U/mL), streptomycin (100 μg/mL), and 2-mercaptoethanol (0.05 mM). THP-1 cells were treated with PMA (100 ng/ml) for 48 hours and then washed and rested for 24 hours in PMA-free media. These cells were treated with LPS (100 ng/ml) for 24 hours in the presence or absence of 5 uM of […] compounds (added 2 hours before LPS). Cell culture supernatants were collected and IL-1β (cat. No DLB50, R&D Systems), TNF-α (cat. no. DTA00D, R&D Systems) and IL-6 (cat. No D6050, R&D Systems) protein levels were evaluated by ELISA assay.

Raw 264.7 cells = experiment: Raw 264.7 macrophage cell growth (trypan blue count); type: cell-based, BALB/C mice; details: 1, 10, 25, 50, 100, 200 μM, 24 h
Protocol: The effect of GS27 on the growth of Raw 264.7 cells was evaluated to examine GS27 potential toxicity effects. RAW 264.7 cells are macrophage-like Abelson leukemia virus transformed cell line derived from BALB/C mice. The cell line was obtained from ATCC.
RAW 264.7 cells were maintained at 37° C., in a 5% CO2 and 100% humidity incubator and grown in suspension, in non-adherent flasks, in RPMI 1640-Glutamax to which was added 50 U/mL of penicillin, 50 μg/mL streptomycin and 10% (v/v) fetal bovine serum (FBS). These cells were exposed to increasing doses of GS27 (1, 10, 25, 50, 100, 200 μM) for 24 h and after the exposure period, the cells were harvested with trypsin-EDTA and trypan blue was applied to the cell suspension. Non-colored and blue cells were counted while using an automated cell counter.

pAMPK (T172) = experiment: ELISA of pAMPK (T172) in PANC-1 cells; type: cell-based, human; details: rIGF1, 5 μM, 24 hours
Protocol: ELISA assay was used to evaluate the effect of GS compounds on protein activity levels in PANC-1 cancer cells. PANC-1 cells were serum-starved overnight and then treated with rIGF1 (100 ng/mL) for 24 hours, with or without GS27 (5 μM). The levels of the following proteins were evaluated by ELISA assay: a) p70 S6 (T389) (cat no. 54164C, Cell Signaling); b) pAKT (S473), (cat no. 80895, Cell Signaling); c) pACLY (S455), (cat no. okag1672, Avivasysbio); d) pAMPK (T172) (cat no. 7959C, Cell Signaling) and e) p65/NFKB (S536), (cat no. 7173, Cell Signaling).
PANC-1 is a human pancreatic ductal adenocarcinoma cell line derived from the carcinoma of a person.
The molecular mechanism of action of GS27, a compound that has exerted potent anti-cancer activity in different cancer cell lines including pancreatic cancer cells, was investigated. Oleacein has been implicated to have anti-inflammatory and metabolic effects, thus the potential effects of GS27 in different metabolic and inflammatory pathways were evaluated. Specifically, the protein levels of p70 S6 (T389), pAKT (S473), pACLY (S455), pAMPK (T172) and p65/NFKB (S536) were evaluated by ELISA assay in PANC-1 pancreatic cancer cells treated with 5 μM GS27. GS27 reduced p70 S6 and AKT phosphorylation levels, while it increased AMPK phosphorylation.

[1] = tested on: C4-2 castration-resistant prostate cells; experiment: C4-2 castration-resistant prostate cancer cell growth; type: cell-based; details: 72 hours, androgen-depleted conditions
Protocol: The effect of GS27 on castration-resistant prostate cancer cells was evaluated, alone and in combination with enzalutamide (ENZ). Enzalutamide (XTANDI; Astellas Pharma), is an androgen receptor inhibitor used for treatment of patients with prostate cancer. In a further study, the effect of G27 in combination with ENZ on castration-resistant prostate cancer cells was compared to combination treatment of NDI-091143 with ENZ.
C4-2 Castration-resistant prostate cells cultured in androgen-depleted conditions were treated with 1 μM of GS27, in the presence or absence of 10 μM of enzalutamide (ENZ) for 72 hours.
C4-2 castration-resistant prostate cells cultured in androgen-depleted conditions were treated with 1 μM of GS27 or NDI-091143, in the presence of 10 μM of enzalutamide (ENZ) for 72 hours.

[2] = tested on: AsPC-1 pancreatic cancer tumor cells; experiment: Nile red lipid content of AsPC-1 xenograft tumors; type: in vivo, mice; details: 100 mg/kg i.p., tumors collected 24 days post-treatment
Protocol: Tumors derived from the mice treated by intraperitoneal injection with GS27 at 100 mg/kg were collected 24 days post-treatment. The tumors were evaluated for their lipid content using the dye nile red as a fluorescent vital stain for the detection of intracellular lipid droplets by fluorescence microscopy and flow cytofluorometry, as described previously (Greenspan, Peter et al., J Cell Biol, 1985, 100(3):965-973). […] Quantification of the data is shown in the bar graph.

Compound | TNF-α protein levels (TNF-α) | effect on Raw 264.7 cell growth (Raw 264.7 cells) | AMPK phosphorylation (pAMPK (T172)) | growth of C4-2 prostate cancer cells, combination with enzalutamide ([1]; 1 μM plus 10 μM enzalutamide) | growth of C4-2 prostate cancer cells, compound alone ([1]; 1 μM) | reduction in the lipid content of AsPC-1 tumor cells [2]
C/C=C(/C=O)[C@@H](CC=O)CC(=O)OCCOc1ccccc1 [GS24, (3S,4E)-4-formyl-3-(2-oxoethyl)-4-hexenoic acid 2-phenoxyethyl ester] | reducing substantially | – | – | – | – | –
C/C=C(/C=O)[C@@H](CC=O)CC(=O)SCCc1ccccc1 [GS27, S-phenethyl (3S,4E)-4-formyl-3-(2-oxoethyl)hex-4-enethioate] | – | no effect | increased | substantial additive effect; also recorded: more effective than NDI-091143 and enzalutamide | inhibited the growth | 55%
